“And” between values parts separate entries of the source, which are not always exact repeats. Equal entries are not always repeated. Square brackets hold non-standard residues; d marks the D form. Peptide text beside a SMILES is read from it. Nle = CCCC[C@H](N)C(=O)O
What was measured:
[1] = test system: CTL response; experiment: In vivo CTL response to recombinant adenoviral vector (51Cr release); set-up: species or system C57BL/6 mice; conditions: for CTL response to the adenoviral vector: 60 mg/Kg or 120 mg/Kg calpain inhibitor 1, 9×10^9 particles/animal iv, spleens day 10
Procedure: FIG. 11 is a graphical results of the cytotoxicity assay of CTL against ACN53 transduced EL-4 targets in C57/B16 mice injected with 60 mg/Kg (A) or 120 mg/Kg (♦) calpain inhibitor 1 in combination with ACN53 as more fully described in Example 7 herein. Percent lysis is plotted on the vertical axis and time on the horizontal axis. The ACN53 alone is represented by the circles (●) and the naive control level is represented by the squares (▪).
The applicants hypothesized that the combined effect on MHC Class 1 presentation and apoptosis of non-transduced will reduce the immune response to the viral vectors. This was confirmed in a in vivo mouse model in substantial accordance with the teaching of example […] herein. The results are shown in the FIG. 8 of the attached drawings.
C57BU6 mice (2 mice per dose) were injected intravenously with 9×10^9 particles/animal (iv/200 μl) of a recombinant adenoviral vector encoding the βgal reporter gene under control of the CMV promoter. Naive mice were employed as controls. The spleens were harvested at day 10 for immunological analysis. Livers were harvested for analysis of β-gal transgene expression. Cells were be dispersed to a single cell suspension and washed 3 times. The cells were be resuspended complete RPMI-10 (RPMI+10% FCS, 2ME (5 μM), glutamine, Na pyruvate, Pen/Strep). Responder CTL cells were seeded in 24-well plates at 8×10^6 cells per well in 1.5 ml RPMI-5%. The responder CTL cells were restimulated by adding syngeneic (C57BL/6) spleen cells that were transduced for 6 hours with 2×10^10 BGCG particles/ml and then mitomycin treated to inhibit proliferation and/or activation of stimulator cell populations. The responder CTL were co-cultured with the stimulator cells at 37° C. in a humidified incubator for seven days. […] The Effector CTL cells were harvested, washed 2 times and counted to enumerate the CTL effector cells. […] The Effector CTL cells were co-cultivated with the target cells for 6 hours and the specific ^51Cr release were determined by counting harvested supernates (100 μl) in the γ counter.

[2] = test system: DLD1 cells; experiment: Apoptosis by annexin V-FITC staining, flow cytometry; format: cell-based; conditions: for Percent Annexin V Positive Staining: 26 hours post treatment
Procedure: (§1) P53 was administered to the cells by the use of the replication defective adenoviral vector ACN53 described in Wills, et al., supra. The effect of varying concentrations of rAd-p53 (from […] to 2×10^9 rAd-p53 particles/ml of solution) was investigated in combination with CI-1 in a range of 5–20 μm. The effects of individual and combination treatment was determined in the in DLD1, RKO, HLF and SK-Hep1 cells was investigated in substantial accordance with the teaching of Examples 2 and 3 herein. The percentage of apoptotic cells was determined at 17 hours post treatment (with the exception of U87 cells (24 hours) and HeLa cells (68 hours)) with annexin V positive staining. The results are presented in graphical format in FIG. 3 of the attached drawings. In brief, the results were as follows:
(§2) The effect of an inhibitor of μ-calpains, CI-1 (N-acetyl-leu-leu-norleucinal), was investigated for its ability to enhance p53 mediated apoptosis in tumor cell lines having p53+ and p53− status listed in Table1. Each cell line was treated with 5–50 μM CI-1 for 17–26 hours. To detect a G0/G1 block, bromodeoxyuridine (BrdU) incorporation followed by flow cytometric analysis was done 17 hours post-treatment as described in Example 4 herein. […] The results of these experiments are presented in FIGS. 1 and 2 of the attached drawings. In FIG. 1, each point on the graph represents percentage annexin V positive after background percentage (DMF alone) was subtracted.
(§3) An aliquot containing approximately 1×10^6 cells of each type was placed in a T-225 flask. The effect of varying concentrations of rAd-p53 (from 1×10^7 to 2×10^9ACN53 particles/ml of solution) was investigated in combination with CI-1 in a range of 5–20 μM. In each instance, the cell line was infected with 1×10^7–1×10^9 particles/ml of cell culture with the ACN53 using the empty cassette virus (ZZCB) as a control. In each instance, the cells were exposed to the virus for a period of one hour. At the end of this time, the virus was washed off the from the cells and fresh media containing an appropriate concentration of CI-1 was added.
(§4) CI-1 was obtained from Boehringer-Mannheim Biochemicals (Indianapolis, Ind.). The CI-1 containing media was prepared as follows. CI-1 was diluted in dimethylformamide (DMF) to a concentration of 33.3 μM/μl. The CI-1 solution in DMF was added to achieve a final concentration in the media of 5 or 10 μM final concentration of CI-1. An equivalent volume of DMF alone was added to the control cells. Calpain inhibitor 2, N-acetyl-leu—leu-methioninal (Boehringer Mannheim) was added to cell lines at 5–50 μM final concentration with or without rAd-p53 for 26 hours.
(§5) At a time of 17 (or 26 hours) post infection, the percentage of cells undergoing apoptosis was determined by convential apoptotic markers. Apoptosis was monitored visually by observing blebbed nuclei characteristic of apoptosis, by propidium iodide staining (using propidium iodide commercially available from Molecular Probes, Inc.) followed by flow cytometric analysis to look for subgenomic populations of cells, and by labeling cells with annexin V-FITC (commercially available from Boehringer Mannheim) in substantial accordance with the instructions provided by the manufacturer, followed by flow cytometric analysis on a FACScan Flow Cytometer (commercially available from Becton Dickinson).

[3] = test system: SK-Hep1 cells; experiment: as above; format: cell-based; conditions: for Percent Annexin V Positive Staining: 26 hours post treatment
Procedure: as §1, §2, §3, §4, §5

[4] = test system: RKO cells; experiment: as above; format: cell-based; conditions: for Percent Annexin V Positive Staining: 26 hours post treatment
Procedure: as §1, §2, §3, §4, §5

[5] = test system: HeLa cells; experiment: as above; format: cell-based; conditions: for Percent Annexin V Positive Staining: 44 hours post treatment
Procedure: as §1, §2, §3, §4, §5

## CCCC[C@@H](C=O)NC(=O)[C@H](CC(C)C)NC(=O)[C@H](CC(C)C)NC(C)=O [CI-1, N-acetyl-leu-leu-norleucinal] (Ac-Leu-Leu-[Nle]-aldehyde)
[1]
  CTL response to the adenoviral vector: significant inhibition
[1]; listed as calpain inhibitor 1
  CTL response to the adenoviral vector: substantially reduced
[1]; treatment with calpain inhibitor CI-1, BGCG injected mice
  relative number of CTL lytic-units (effector to target ratio giving 25% killing): greater than a five-fold decrease
[2]; 10 μM CI-1, 17 hours post treatment
  Percentage of Cells Undergoing Apoptosis: 15%
[2]; CI-1 10 μM
  Percent Annexin V Positive Staining: 15%
[2]; CI-1 20 μM
  Percent Annexin V Positive Staining: 17%
[2]; CI-1 30 μM
  Percent Annexin V Positive Staining: 17%
[2]; CI-1 50 μM
  Percent Annexin V Positive Staining: 18%
[3]; CI-1 10 μM
  Percent Annexin V Positive Staining: 32%
[3]; CI-1 20 μM
  Percent Annexin V Positive Staining: 66%
[3]; CI-1 30 μM
  Percent Annexin V Positive Staining: 73%
[3]; CI-1 40 μM
  Percent Annexin V Positive Staining: 75%
[3]; CI-1 50 μM
  Percent Annexin V Positive Staining: 73%
[3]; [5 μM] CI-1, 17 hours post treatment
  Percentage of Cells Undergoing Apoptosis: 11%
[4]; CI-1 10 μM
  Percent Annexin V Positive Staining: 13%
[4]; CI-1 20 μM
  Percent Annexin V Positive Staining: 52% and 33%
[4]; CI-1 50 μM
  Percent Annexin V Positive Staining: 57%
[4]; [20 μM] CI-1, 17 hours post treatment
  Percentage of Cells Undergoing Apoptosis: 13%
[5]; 10 μM CI-1, 68 hours post treatment
  Percentage of Cells Undergoing Apoptosis: 8.3%
[5]; CI-1 10 μM
  Percent Annexin V Positive Staining: 28%
[5]; CI-1 20 μM
  Percent Annexin V Positive Staining: 48%
[5]; CI-1 30 μM
  Percent Annexin V Positive Staining: 55%
[5]; CI-1 40 μM
  Percent Annexin V Positive Staining: 67%
[5]; CI-1 50 μM
  Percent Annexin V Positive Staining: 80%
[5]; higher concentrations of CI-1, HeLa have E6 mediated degradation of p53
  induction of apoptosis: induced to apoptosis
